Data taken from publication PMC10986609, “Identification of fungal natural products with potent inhibition in Toxoplasma gondii” (Microbiology Spectrum, 2024).
Read-outs that look alike come from different tables or passages of the source. Non-standard residues stand in square brackets, D forms with d. Residues, ends and D or L forms follow the SMILES beside them. *: point of attachment. X1 = CC(C)C[C@@H](CN1CCC[N+]2=C1CCC2)N*; X2 = CC(C)C[C@@H](C[N+]1=C2CCCN2CCC1)N*; Pip = O=C(O)[C@@H]1CCCCN1; Iva = CC[C@](C)(N)C(=O)O; Aib = CC(C)(N)C(=O)O; βAla = NCCC(=O)O

Assays:
[1] = tested on: Toxoplasma gondii tachyzoites (RH88); assay: microbe, parasite or virus in culture; details: read-out: TgRH88 IC50 (mean ± SEM)
Experimental: For the initial fixed concentration screening and IC50 determination in T. gondii, we utilized a luciferase expressing RH88 strain to quantify the number of live, actively replicating parasites. To construct this strain, the Fluc and DHFR selection markers had been integrated into the UPRT locus through CRISPR/Cas9, rendering the strain pyrimethamine-resistant ([6]). Screening was performed using a pure compound library provided by the University of Oklahoma Natural Products Discovery Group, containing 683 compounds derived primarily from fungal secondary metabolites. For purposes of testing, HFFs were grown in 96-well microtiter plates in preparation. The media we used to grow cells was referred to a D10 media that was composed of Dulbecco's Modified Eagle Medium (Thermo Fisher; Cat # 11995073), 10% Fetal Bovine Serum (Sigma-Aldrich; Cat # 12306C), 1 × non-essential amino acids (100 ×; Thermo Fisher; Cat # 11140050), HEPES buffer (1M; Fisher Scientific; Cat # SH3023701) at 0.4M, and 10 mg/mL of gentamicin (Fisher Scientific; Cat # 15710072). Compounds were then diluted to 10 µM in 100 µL of fresh D10 media. Each plate utilized artemisinin and DMSO vehicle controls. To each well, 2,500 parasites per 100 µL of D10 media were added. Three technical replicates were then performed. After 48 hours, 160 µL of the D10 media was removed, and plates were subjected to freezing then thawing. Following this, 10 µL of the passive lysis buffer (Promega; Cat# E1910) was added and incubated at room temperature for 15 min. Finally, 100 µL of luciferase assay reagent (Promega; Cat# E1501) was added to each well, and luminescence was measured using a PHERAstar FSX plate reader (BMG Labtech, Germany).
(§1) For IC50 and cytotoxicity determination, we used 384 plates with confluent HFF cells. Compounds were serially diluted 3-fold with a starting concentration of 20 µM. Samples were further diluted by adding an equal volume of media containing 700 parasites. DMSO and […] of KAE609 were used as negative and positive controls, respectively. Assays were performed with a total of three technical replicates and two biological replicates. After incubation for 48 hours, 50 µL of media was removed, and plates were subjected to freezing and thawing. Following this, 10 µL of passive lysis buffer was added and plates were incubated for 15 min at room temperature. Finally, 30 µL of luciferase reagent was added, and the luminescence was measured immediately using a PHERAstar FSX. In parallel, cytotoxicity dose response was performed in the same fashion without the addition of parasites. Cell counting kit-8 reagent (GlpBio; Cat # GK10001) was added at a 1:10 dilution and incubated at 37°C, 5% CO2 for 1 hour. The absorbance was then measured at 450 nm using a PHERAstar FSX. The data management system CDD vault was used for curve fitting and IC50 determination.

[2] = tested on: human foreskin fibroblasts (HFFs); assay: HFF cytotoxicity dose response (cell counting kit-8); details: for IC50: read-out: HFF IC50 (mean ± SEM); for toxicity to HFFs: highest concentrations tested (20 µM)
Experimental: as §1, with “Samples” for “For IC50 and cytotoxicity determination, we used 384 plates with confluent HFF cells. Compounds were serially diluted 3-fold with a starting concentration of 20 µM. Samples”

[3] = tested on: Plasmodium falciparum (Dd2); details: read-out: PfDd2 IC50, cited from earlier work
[4] = HFF cytotoxicity dose response (cell counting kit-8); details: human, confluent human foreskin fibroblast (HFF) cells
Experimental: as §1, with “Samples” for “For IC50 and cytotoxicity determination, we used 384 plates with confluent HFF cells. Compounds were serially diluted 3-fold with a starting concentration of 20 µM. Samples”

[5] = mean of duplicate or triplicate experiments
[6] = luciferase expressing RH88 in HFF, 48 hours
[7] = cytotoxicity, no parasites, 48 hours, CCK-8

| Compound | IC50 ([1]; Toxoplasma gondii, 48 h) | IC50 ([2]; Homo sapiens, Fibroblast, 48 h) | IC50 [1, 6] | IC50 [2, 7] | also measured |
| --- | --- | --- | --- | --- | --- |
| C[C@H]1Cc2c([nH]c3cc(Cl)c(F)cc23)[C@@]2(N1)C(=O)Nc1ccc(Cl)cc12 [KAE609, reference compound] | 440 ± 34.8 nM | > 20000 nM |  |  |  |
| CN(C)c1ccc2nc3ccc(=[N+](C)C)cc-3sc2c1 [Methylene blue, reference compound] | 258 ± 0.95 nM | > 20000 nM |  |  |  |
| CCC(=O)CCCCCC1NC(=O)C2CCCCN2C(=O)C(C(C)C)NC(=O)C(Cc2cn(OC)c3ccccc23)NC1=O (centres unmarked) [compound 120251, Apicidin C] | 25.9 ± 10.2 nM | > 20000 nM |  |  | IC50 [3, 5]: 236 nM |
| C=C1Cc2ccc3[nH]c4c(c3c2[C@H]2[C@@H]1C[C@@H]2C(C)(C)O)C[C@@H]1CC[C@@]2(O)C3=C[C@@H](O)[C@@H](C(=C)C)O[C@H]3CC[C@]2(C)[C@@]41C [compound 120253, Secopenitrem D] |  |  | 14100 nM | > 20000 nM |  |
| COC(=O)[C@@]12Oc3ccc(-c4ccc5c(c4O)C(O)C4=C(O)C[C@H](C)[C@@H](O)[C@]4(C(=O)OC)O5)c(O)c3C(=O)C1=C(O)C[C@H](C)[C@H]2O (some centres unmarked) [compound 130002, Secalonic acid D] | 334 ± 103 nM | 3730 nM |  |  | IC50 [3, 5]: 1300 nM |
| CC(O)[C@@]12SS[C@]3(C(=O)N1C)[C@@H](O)C1([C@@]45c6ccccc6N[C@@H]4N4C(=O)[C@]6(C(C)O)SS[C@]4(C(=O)N6C)[C@H]5O)c4ccccc4N[C@@H]1N3C2=O (some centres unmarked) [compound 130016, Verticillin D] |  |  | 36.2 ± 1.8 nM | 943.2 ± 6.4 nM |  |
| C=C[C@H]1C[C@@H](C)C[C@@H](C)[C@@H]1c1c(O)ccn(O)c1=O [compound 130034, Pyridoxatin] |  |  | > 8560 nM | > 20000 nM |  |
| COC(=O)C12Oc3c(c(O)cc4c3C3C=CC5(C4)C(=O)c4cc(C)cc(O)c4C(O)=C5C3=O)C(O)=C1C(=O)CCC2O (centres unmarked) [compound 130143, Xanthoquinodin B2] | 131 ± 36.5 nM | > 20000 nM |  |  | IC50 [3, 5]: 1010 nM |
| CC[C@](C)(NC(=O)[C@H](CC(C)C)NC(=O)[C@H](C)NC(=O)C(C)(C)NC(=O)[C@@H]1CCCCN1C(=O)C(C)(C)NC(=O)C(C)(C)NC(=O)CNC(=O)CCNC(=O)[C@H](CC(C)C)NC(=O)C(C)(C)NC(=O)C(C)(C)NC(=O)[C@@H]1CCCCN1C(=O)C(C)(C)NC(=O)[C@@H]1CCCCN1C(C)=O)C(=O)N[C@@H](CC(C)C)CN1CCC[N+]2=C1CCC2 [compound 150003, Efrapeptin F] (Ac-[Pip][Aib][Pip][Aib][Aib]L[βAla]G[Aib][Aib][Pip][Aib]AL[Iva]-X1; N-terminus and C-terminus assumed) |  |  | 55.5 ± 11.8 nM | > 20000 nM | IC50 ([3]; ref Lee et al. ([8])): 399 nM |
| CC[C@](C)(NC(=O)[C@H](CC(C)C)NC(=O)[C@H](C)NC(=O)C(C)(C)NC(=O)[C@@H]1CCCCN1C(=O)C(C)(C)NC(=O)C(C)(C)NC(=O)CNC(=O)CCNC(=O)[C@H](CC(C)C)NC(=O)C(C)(C)NC(=O)C(C)(C)NC(=O)[C@@H]1CCCCN1C(=O)C(C)(C)NC(=O)[C@@H]1CCCCN1C(C)=O)C(=O)N[C@@H](CC(C)C)C[N+]1=C2CCCN2CCC1 [compound 150003, Efrapeptin F] (Ac-[Pip][Aib][Pip][Aib][Aib]L[βAla]G[Aib][Aib][Pip][Aib]AL[Iva]-X2) |  |  |  |  | toxicity to HFFs [2]: no toxicity |
| CC[C@](C)(NC(=O)[C@H](CC(C)C)NC(=O)[C@H](C)NC(=O)C(C)(C)NC(=O)[C@@H]1CCCCN1C(=O)C(C)(C)NC(=O)C(C)(C)NC(=O)CNC(=O)CCNC(=O)[C@H](CC(C)C)NC(=O)C(C)(C)NC(=O)[C@](C)(CC)NC(=O)[C@@H]1CCCCN1C(=O)C(C)(C)NC(=O)[C@@H]1CCCCN1C(C)=O)C(=O)N[C@@H](CC(C)C)CN1CCC[N+]2=C1CCC2 [compound 150004, Efrapeptin G] (Ac-[Pip][Aib][Pip][Iva][Aib]L[βAla]G[Aib][Aib][Pip][Aib]AL[Iva]-X1; N-terminus and C-terminus assumed) |  |  | 12.3 ± 2.3 nM | > 20000 nM | IC50 ([3]; ref Lee et al. ([8])): 460 nM |
| CC[C@](C)(NC(=O)[C@H](CC(C)C)NC(=O)[C@H](C)NC(=O)C(C)(C)NC(=O)[C@@H]1CCCCN1C(=O)C(C)(C)NC(=O)C(C)(C)NC(=O)CNC(=O)CCNC(=O)[C@H](CC(C)C)NC(=O)C(C)(C)NC(=O)[C@](C)(CC)NC(=O)[C@@H]1CCCCN1C(=O)C(C)(C)NC(=O)[C@@H]1CCCCN1C(C)=O)C(=O)N[C@@H](CC(C)C)C[N+]1=C2CCCN2CCC1 [compound 150004, Efrapeptin G] (Ac-[Pip][Aib][Pip][Iva][Aib]L[βAla]G[Aib][Aib][Pip][Aib]AL[Iva]-X2) |  |  |  |  | toxicity to HFFs [2]: no toxicity |
| CCCCC[C@@H](O)C[C@@H](O)C[C@@H]1Cc2cc3cc(OC)c(-c4c(OC)cc5cc6c(c(O)c5c4O)C(=O)O[C@H](C[C@H](O)C[C@H](O)CCCCC)C6)c(O)c3c(O)c2C(=O)O1 [compound 150020, Dinapinone A] |  |  | 3170 nM | 6670 nM |  |
| COC(=O)C1=CC(O)C(O)C(O)C1N1CC(O)C(OC(C)=O)C1Cc1ccc(OC)cc1 (centres unmarked) [compound 150029] | 585 ± 14.6 nM | 28500 nM |  |  | IC50 at 48 h [4]: 28500 ± 2400 nM |
| COC(=O)c1c(Sc2c(O)cc(OC)c(C(=O)c3c(O)cc(C)cc3O)c2C(=O)OC)c(O)cc(OC)c1C(=O)c1c(O)cc(C)cc1O [compound 150052, Polluxochrin] | 801 ± 163 nM | > 60000 nM |  |  |  |
| C[C@H]1CCC/C=C/[C@@H]2C[C@H](O)C[C@H]2[C@H](O)/C=C/C(=O)O1 [compound 160010, Brefeldin A] | 243 ± 78.4 nM | 6430 nM |  |  |  |
| CN1C(=O)[C@]2(Cc3cn([C@]45C[C@@]67SS[C@@](CO)(C(=O)N6[C@H]4Nc4ccccc45)N(C)C7=O)c4ccccc34)SS[C@@]1(CO)C(=O)N2C [compound 170066, Chetomin] | 62.2 ± 3.75 nM | 369 ± 72.6 nM |  |  |  |
| COc1c(C[C@@H](C)OC(=O)Oc2ccc(O)cc2)c2c3c(C[C@@H](C)OC(=O)c4ccccc4)c(OC)c(=O)c4c(O)cc(OC)c(c5c(OC)cc(O)c(c1=O)c52)c43 [compound 170068, Calphostin C] | 1140 nM | > 20000 nM |  |  | IC50 [3, 5]: 410 nM |
| CC1=C[C@@H]2/C=C(\C)CC[C@H](O)[C@H](O)/C=C/C(=O)[C@]23C(=O)N[C@@H](CC(C)C)[C@@H]3[C@@H]1C [compound 170081, Aspochalasin D] | 1270 nM | 30300 nM |  |  |  |
| Alpha-cyclopiazonic acid [compound 170027] |  |  | 1130 nM | > 40000 nM |  |
| PF-1140 [compound 120159] |  |  | 3290 nM | > 20000 nM |  |
| Verticillin [compound 130038] |  |  | 79 ± 29.3 nM | 82.4 ± 41.8 nM | IC50 [3, 5]: 501 nM |
